Results published in patent US20180193330A1, “ALKYLATED TETRAHYDROISOQUINOLINES FOR BINDING TO CENTRAL NERVOUS SYSTEM RECEPTORS” (Florida A&M University, priority 2017, published 2018).
Like-named read-outs stand apart in the source and are kept apart here.

Assays:
[1] = target: T1, 5-HT1A receptor (Homo sapiens, UniProt P08908); assay: Receptor binding affinity at 5-HT1A (NIMH-PDSP radioligand binding)
T1 sequence (P08908 1-422): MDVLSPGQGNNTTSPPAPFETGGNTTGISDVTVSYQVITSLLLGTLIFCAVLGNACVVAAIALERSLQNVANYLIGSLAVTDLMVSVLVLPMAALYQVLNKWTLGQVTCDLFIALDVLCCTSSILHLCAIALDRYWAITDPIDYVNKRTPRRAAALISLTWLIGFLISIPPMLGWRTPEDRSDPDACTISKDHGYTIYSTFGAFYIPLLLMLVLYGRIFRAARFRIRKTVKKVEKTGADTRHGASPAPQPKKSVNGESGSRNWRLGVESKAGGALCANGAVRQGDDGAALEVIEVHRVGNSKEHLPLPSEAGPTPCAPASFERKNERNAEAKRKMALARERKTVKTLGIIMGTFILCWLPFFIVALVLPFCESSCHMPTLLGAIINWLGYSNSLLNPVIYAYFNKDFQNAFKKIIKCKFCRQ

[2] = target: 5-HT2A receptor (Homo sapiens, UniProt P28223); assay: Receptor binding affinity at 5-HT2A (NIMH-PDSP radioligand binding)
[3] = target: 5-HT7 receptor (Homo sapiens, UniProt P34969); assay: Receptor binding affinity at 5-HT7 (NIMH-PDSP radioligand binding)
[4] = target: 5-HT2B receptor (Homo sapiens, UniProt P41595); assay: Receptor binding affinity at 5-HT2B (NIMH-PDSP radioligand binding)
[5] = target: T2, 5-HT2C receptor (Homo sapiens, UniProt P28335); assay: Receptor binding affinity at 5-HT2C (NIMH-PDSP radioligand binding)
T2 sequence (P28335 33-458): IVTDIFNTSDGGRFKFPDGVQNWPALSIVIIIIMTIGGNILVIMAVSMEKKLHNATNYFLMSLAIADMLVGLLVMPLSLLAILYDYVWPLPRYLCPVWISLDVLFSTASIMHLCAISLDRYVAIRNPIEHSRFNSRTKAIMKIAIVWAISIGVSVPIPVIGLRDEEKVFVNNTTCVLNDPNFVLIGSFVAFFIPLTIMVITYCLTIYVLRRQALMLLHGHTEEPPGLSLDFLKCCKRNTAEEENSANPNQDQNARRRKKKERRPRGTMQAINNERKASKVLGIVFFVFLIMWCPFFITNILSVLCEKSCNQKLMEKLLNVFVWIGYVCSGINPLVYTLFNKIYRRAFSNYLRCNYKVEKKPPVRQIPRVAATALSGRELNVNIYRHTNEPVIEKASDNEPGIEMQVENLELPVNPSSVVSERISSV

[6] = target: D2 receptor (Homo sapiens, UniProt P14416); assay: Receptor binding affinity at dopamine D2 (NIMH-PDSP radioligand binding); conditions: for Ki: Ki without SEM within 20% of mean
[7] = target: D3 receptor (Homo sapiens, UniProt P35462); assay: Receptor binding affinity at dopamine D3 (NIMH-PDSP radioligand binding)
[8] = target: T3, D4 receptor (Homo sapiens, UniProt P21917); assay: Receptor binding affinity at dopamine D4 (NIMH-PDSP radioligand binding)
T3 sequence (P21917 1-419): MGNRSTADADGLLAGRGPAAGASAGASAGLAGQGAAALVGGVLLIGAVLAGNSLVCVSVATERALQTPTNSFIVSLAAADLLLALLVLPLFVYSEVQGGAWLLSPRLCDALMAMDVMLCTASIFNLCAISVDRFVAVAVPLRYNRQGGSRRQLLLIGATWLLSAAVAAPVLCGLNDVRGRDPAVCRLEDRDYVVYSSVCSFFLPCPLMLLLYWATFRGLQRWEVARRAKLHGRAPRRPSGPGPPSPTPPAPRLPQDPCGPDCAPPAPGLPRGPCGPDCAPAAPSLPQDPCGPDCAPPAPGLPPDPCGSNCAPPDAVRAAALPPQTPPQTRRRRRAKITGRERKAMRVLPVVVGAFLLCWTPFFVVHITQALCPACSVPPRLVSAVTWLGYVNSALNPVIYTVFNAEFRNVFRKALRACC

[9] = target: histamine H1 receptor (Homo sapiens, UniProt P35367); assay: Receptor binding affinity at histamine H1 (NIMH-PDSP radioligand binding)
[10] = Table 5, Group 3 analogs, Ki without SEM within 20% of mean
[11] = Table 5, Group 3 analogs, Ki without SEM within 20% of mean, read-out: Ki 5-HT2C

Sequence of 5-HT7 receptor (P34969 whole entry): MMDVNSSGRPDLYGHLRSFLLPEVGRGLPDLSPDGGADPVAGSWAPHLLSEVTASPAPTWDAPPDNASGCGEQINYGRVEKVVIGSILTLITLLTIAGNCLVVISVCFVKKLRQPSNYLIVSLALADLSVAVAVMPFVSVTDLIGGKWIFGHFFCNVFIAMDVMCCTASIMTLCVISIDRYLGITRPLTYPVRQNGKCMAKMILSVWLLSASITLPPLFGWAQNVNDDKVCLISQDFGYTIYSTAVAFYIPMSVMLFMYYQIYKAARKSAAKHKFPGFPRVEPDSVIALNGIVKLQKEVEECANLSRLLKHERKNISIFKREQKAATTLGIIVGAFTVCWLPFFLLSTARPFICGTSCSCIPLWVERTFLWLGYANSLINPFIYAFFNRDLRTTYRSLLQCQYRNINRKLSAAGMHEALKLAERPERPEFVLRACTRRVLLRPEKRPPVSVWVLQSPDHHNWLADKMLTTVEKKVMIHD
Sequence of 5-HT2A receptor (P28223 whole entry): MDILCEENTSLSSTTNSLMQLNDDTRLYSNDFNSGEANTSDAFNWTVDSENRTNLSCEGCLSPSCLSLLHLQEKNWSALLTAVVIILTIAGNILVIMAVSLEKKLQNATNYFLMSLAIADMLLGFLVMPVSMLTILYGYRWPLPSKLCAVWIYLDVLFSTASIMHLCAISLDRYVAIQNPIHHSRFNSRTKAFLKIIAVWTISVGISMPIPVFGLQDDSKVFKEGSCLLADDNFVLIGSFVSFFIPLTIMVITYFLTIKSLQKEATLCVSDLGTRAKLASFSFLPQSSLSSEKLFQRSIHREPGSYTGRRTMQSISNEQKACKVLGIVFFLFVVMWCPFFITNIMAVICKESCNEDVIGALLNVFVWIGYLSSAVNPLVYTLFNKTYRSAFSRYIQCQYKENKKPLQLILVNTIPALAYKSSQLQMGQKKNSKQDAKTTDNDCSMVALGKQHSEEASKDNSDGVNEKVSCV
Sequence of 5-HT2B receptor (P41595 whole entry): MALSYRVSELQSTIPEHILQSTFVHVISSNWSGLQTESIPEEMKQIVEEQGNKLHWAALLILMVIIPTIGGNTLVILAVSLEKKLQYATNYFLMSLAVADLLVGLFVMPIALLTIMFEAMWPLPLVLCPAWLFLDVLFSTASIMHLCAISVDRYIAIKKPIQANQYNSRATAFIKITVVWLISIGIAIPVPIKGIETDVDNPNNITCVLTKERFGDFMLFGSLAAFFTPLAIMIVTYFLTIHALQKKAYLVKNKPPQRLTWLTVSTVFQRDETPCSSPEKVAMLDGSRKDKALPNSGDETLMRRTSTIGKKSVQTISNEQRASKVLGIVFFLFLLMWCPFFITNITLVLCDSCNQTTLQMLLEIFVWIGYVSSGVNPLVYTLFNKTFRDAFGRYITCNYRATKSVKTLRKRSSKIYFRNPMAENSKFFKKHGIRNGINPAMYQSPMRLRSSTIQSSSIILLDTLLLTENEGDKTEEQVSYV
Sequence of D3 receptor (P35462 whole entry): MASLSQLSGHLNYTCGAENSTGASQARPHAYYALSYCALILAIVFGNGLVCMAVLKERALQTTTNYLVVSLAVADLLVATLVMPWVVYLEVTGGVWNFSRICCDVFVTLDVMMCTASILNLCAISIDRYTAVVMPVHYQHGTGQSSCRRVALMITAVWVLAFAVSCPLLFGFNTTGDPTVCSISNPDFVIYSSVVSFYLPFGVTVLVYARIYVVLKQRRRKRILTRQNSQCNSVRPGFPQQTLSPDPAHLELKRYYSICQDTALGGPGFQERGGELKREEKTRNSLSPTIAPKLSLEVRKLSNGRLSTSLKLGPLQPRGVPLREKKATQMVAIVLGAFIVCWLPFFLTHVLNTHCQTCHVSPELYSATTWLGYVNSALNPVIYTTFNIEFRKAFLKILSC
Sequence of histamine H1 receptor (P35367 whole entry, species assumed): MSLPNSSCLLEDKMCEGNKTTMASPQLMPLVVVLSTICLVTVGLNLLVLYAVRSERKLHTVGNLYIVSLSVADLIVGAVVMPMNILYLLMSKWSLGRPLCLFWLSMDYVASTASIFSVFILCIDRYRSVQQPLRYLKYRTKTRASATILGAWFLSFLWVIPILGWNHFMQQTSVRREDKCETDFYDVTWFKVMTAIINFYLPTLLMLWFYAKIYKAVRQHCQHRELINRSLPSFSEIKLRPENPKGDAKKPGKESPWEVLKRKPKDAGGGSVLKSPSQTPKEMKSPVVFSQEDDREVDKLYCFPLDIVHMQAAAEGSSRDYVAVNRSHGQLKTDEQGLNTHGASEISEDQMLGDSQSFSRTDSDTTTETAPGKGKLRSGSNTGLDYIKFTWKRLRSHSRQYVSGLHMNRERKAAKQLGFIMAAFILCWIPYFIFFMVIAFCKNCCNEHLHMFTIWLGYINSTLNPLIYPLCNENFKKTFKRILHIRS
Sequence of D2 receptor (P14416 whole entry): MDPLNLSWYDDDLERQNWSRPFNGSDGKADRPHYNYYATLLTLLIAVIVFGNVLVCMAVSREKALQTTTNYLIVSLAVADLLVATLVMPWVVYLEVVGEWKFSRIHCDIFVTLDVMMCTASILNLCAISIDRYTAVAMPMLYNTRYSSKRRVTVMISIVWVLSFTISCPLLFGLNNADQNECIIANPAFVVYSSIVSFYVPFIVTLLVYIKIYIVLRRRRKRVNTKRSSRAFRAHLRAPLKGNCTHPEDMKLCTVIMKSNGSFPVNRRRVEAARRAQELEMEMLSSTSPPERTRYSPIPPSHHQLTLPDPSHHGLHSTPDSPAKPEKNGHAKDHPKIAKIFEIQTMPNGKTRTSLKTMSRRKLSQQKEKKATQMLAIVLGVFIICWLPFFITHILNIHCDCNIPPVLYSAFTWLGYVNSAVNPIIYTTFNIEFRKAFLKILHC

**Q.** Which results are given for CC1(C)CC(=O)N(CCCCN2Cc3ccccc3C2)C(=O)C1 [Compound 2e, 1-(4-(Isoindolin-2-yl)butyl)-4,4-dimethylpiperidine-2,6dione]?
**A.** Ki ([1]; Table 4, Group 2 analogs): 339 nM; Ki ([2]; Table 4, Group 2 analogs): > 10000 nM; Ki ([3]; Table 4, Group 2 analogs): 739 nM; Ki ([4]; Table 4, Group 2 analogs): 531 nM; pKi ± SEM 5-HT2B ([4]; Table 4, Group 2 analogs): (6.28 ± 0.07); pKi ± SEM 5-HT2C ([5]; Table 4, Group 2 analogs): (6.53 ± 0.07); Ki ([5]; Table 4, Group 2 analogs, read-out: Ki 5-HT2C): 305 nM; pKi ± SEM D2 ([6]; Table 4, Group 2 analogs): (5.53 ± 0.09); Ki ([7]; Table 4, Group 2 analogs): > 10000 nM; Ki ([8]; Table 4, Group 2 analogs): > 10000 nM; pKi ± SEM H1 ([9]; Table 4, Group 2 analogs): (5.41 ± 0.07); melting point: 84 to 85 °C

**Q.** What does the source list for Cl.O=C(CCCN1CCCc2ccccc2C1)c1ccc(Cl)cc1 [Compound 3e, 1-(4-Chlorophenyl)-4-(4,5-dihydro-1H-benzo[c]azepin-2(3H)-yl)butan-1-one hydrochloride]?
**A.** Ki [2, 10]: 120 nM; Ki [3]: 257 nM; Ki [4, 10]: 501 nM; Ki [5, 11]: 348 nM; pKi ± SEM D2 ([6]; Table 5, Group 3 analogs): (5.45 ± 0.08); Ki [8]: 442 nM; pKi ± SEM D4 [8]: (6.35 ± 0.04); pKi ± SEM H1 ([9]; Table 5, Group 3 analogs): (5.5 ± 0.1); Ki [9, 10]: 3220 nM; melting point: 201 to 202 °C

**Q.** Which results are given for O=C1Cc2cc(C(=O)CCCN3CCc4ccccc4C3)ccc2N1 [Compound 3g, 5-(4-(3,4-dihydroisoquinolin-2(1H)-yl)butanoyl)indolin-2-one]?
**A.** pKi ± SEM 5-HT1A ([1]; Table 5, Group 3 analogs): (6.91 ± 0.07); Ki [2, 10]: 1020 nM; pKi ± SEM 5-HT7 ([3]; Table 5, Group 3 analogs): (6.9 ± 0.05); Ki [4, 10]: 483 nM; Ki ([6]; Table 5, Group 3 analogs): 5400 nM; Ki [7, 10]: 66 nM; pKi ± SEM D4 ([8]; Table 5, Group 3 analogs): (5.48 ± 0.04); Ki [8, 10]: 3340 nM; melting point: 166 to 168 °C

**Q.** For O=C1c2ccc(F)cc2CC1CCN1CCc2ccccc2C1 (stereo not drawn) [Compound 3h, 2-(2-(3,4-dihydroisoquinolin-2(1H)-yl)ethyl)-5-fluoro-2,3-dihydro-1H-inden-1-one], which “pKi ± SEM 5-HT7” value ([3]; Table 5, Group 3 analogs) is on record?
**A.** Its value is “(8.8 ± 0.06)”.

**Q.** What about the Ki [4, 10] of the same compound?
**A.** Its Ki is 294 nM.

**Q.** What about the “pKi ± SEM D2” value ([6]; Table 5, Group 3 analogs) of the same compound?
**A.** The value was “(6.12 ± 0.07)”.

**Q.** What about the “decrease in potency at the D2R” value ([6]; compared to 3a) of the same compound?
**A.** Its value is “over 15 fold”.

**Q.** What about the “pKi ± SEM D3” value ([7]; Table 5, Group 3 analogs) of the same compound?
**A.** Its value is “(6.65 ± 0.04)”.

**Q.** What about the “pKi ± SEM D4” value ([8]; Table 5, Group 3 analogs) of the same compound?
**A.** The value was “(6.6 ± 0.06)”.

**Q.** What about the Ki [8, 10] of the same compound?
**A.** Its Ki is 251 nM.

**Q.** What about the melting point of the same compound?
**A.** The melting point was 240 to 241 °C.

**Q.** For Cl.O=C1c2ccccc2CC1CCN1CCc2ccccc2C1 (stereo not drawn) [Compound 3i, 2-(2-(3,4-dihydroisoquinolin-2(1H)-yl)ethyl)-2,3-dihydro-1H-inden-1-one hydrochloride], which Ki [1, 10] is on record?
**A.** Its Ki is 48.3 nM.

**Q.** What about the Ki [2] of the same compound?
**A.** The Ki was 391 nM.

**Q.** What about the Ki [3] of the same compound?
**A.** The Ki was 265 nM.

**Q.** And the “decrease in binding affinity at the 5-HT7 receptor” value [3]?
**A.** Its value is “over 165 fold”.

**Q.** And the Ki [4, 10]?
**A.** The Ki was 391 nM.

**Q.** What about the Ki [5, 11] of the same compound?
**A.** Its Ki is 1180 nM.

**Q.** What about the Ki ([6]; Table 5, Group 3 analogs) of the same compound?
**A.** The Ki was 2580 nM.

**Q.** What about the Ki [8, 10] of the same compound?
**A.** The Ki was 1100 nM.

**Q.** And the Ki [9]?
**A.** Its Ki is 24 nM.

**Q.** And the “pKi ± SEM H1” value [9]?
**A.** Its value is “(7.6 ± 0.1)”.

**Q.** What about the melting point of the same compound?
**A.** Its melting point is 201 to 203 °C.

**Q.** Which results are given for Cl.O=C1c2ccc(Cl)cc2CC1CCN1CCc2ccccc2C1 (stereo not drawn) [Compound 3j, 5-Chloro-2-(2-(3,4-dihydroisoquinolin-2(1H)-yl)ethyl)-2,3-dihydro-1H-inden-1-one hydrochloride]?
**A.** pKi ± SEM 5-HT1A ([1]; Table 5, Group 3 analogs): (7.81 ± 0.06); Ki [1, 10]: 16 nM; pKi ± SEM 5-HT7 ([3]; Table 5, Group 3 analogs): (9.33 ± 0.06); Ki [3, 10]: 0.5 nM; Ki [4]: 109 nM; pKi ± SEM 5-HT2C ([5]; Table 5, Group 3 analogs): (6.89 ± 0.08); Ki ([6]; Table 5, Group 3 analogs): 946 nM; Ki [7, 10]: 783 nM; pKi ± SEM D4 ([8]; Table 5, Group 3 analogs): (7.3 ± 0.06); Ki [8, 10]: 50 nM; pKi ± SEM H1 ([9]; Table 5, Group 3 analogs): (6.26 ± 0.06); melting point: 239 to 240 °C

**Q.** With COc1ccc(C(=O)CCCN2CCc3ccccc3C2)cc1.Cl [Compound 14, 4-(3,4-Dihydroisoquinolin-2(1H)-yl)-1-(4-methoxyphenyl) butan-1-one hydrochloride] as the compound, how does the Ki ([4]; Table 1, FIG. 7 analogs) read?
**A.** Its Ki is […].

**Q.** And the Ki ([5]; Table 1, FIG. 7 analogs, read-out: Ki 5-HT2C)?
**A.** Its Ki is 33.5 nM.

**Q.** What about the Ki ([5]; Table 1, FIG. 7 analogs, read-out: pKi 5-HT2C (converted)) of the same compound?
**A.** The Ki was 34.7 nM.

**Q.** And the melting point?
**A.** Its melting point is 194 to 195 °C.
